From US11827628B2, “Compositions and methods for inhibition of the JAK pathway” (Rigel Pharmaceuticals, Inc., priority 2005, dated 2023)
Like-named read-outs stand apart in the source and are kept apart here.

Columns and labels:
[1] = tested on: IL-4 stimulated expression of CD23 in human Ramos B cells (JAK-1 and JAK-3); assay: Assay for Ramos B-Cell Line Stimulated with IL-4 (CD23 upregulation, FACS); format: cell-based; conditions: read-out: IC50, Example 41
In short: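 Steps: Ramos B cells are suspended in RPMI with 5% serum, exposed to compound for 1 h at 37 °C, stimulated with IL-4 (final 50 units/mL) for 20-24 h, stained for CD23 and analysed by flow cytometry. IC50 is calculated.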

[2] = tested on: up-regulation of ICAM-1 (CD54) by IFNγ in U937 human monocytic cells; assay: U937 IFNγ ICAM1 FACS Assay; format: cell-based; conditions: U937 cells stimulated with IFNγ; ICAM-1 expression by FACS; read-out: IC50, Example 44
In short: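 Readout was the geometric-mean APC anti-ICAM-1 signal by FACS on live U937 monocytic cells, with % live cells also recorded. Cells were exposed to compounds (8 points, 3-fold dilutions, duplicates) for 30 min at 37 °C before 18–24 h of IFNγ stimulation. EC50 values were computed from the dose curve.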

[3] = Ramos B cells stimulated with IL-4, CD23 expression by FACS
[4] = Ramos B-cell line stimulated with IL-4, CD23 expression by FACS

Compound	IC50 [1, 3] [nM]	IC50 [2] [nM]	IC50 [1, 4] [nM]
N#CCOc1ccc(Nc2nc(Nc3cccc(S(N)(=O)=O)c3)ncc2F)cc1F [Compound I-12, N2-(3-Aminosulfonylphenyl)-5-fluoro-N4-(4-cyanomethyleneoxy-3-fluorophenyl)-2,4-pyrimidinediamine]	–	222	36.9
CNS(=O)(=O)c1cc(Nc2ncc(F)c(Nc3cccc(OCc4cccnc4)c3)n2)ccc1C [Compound I-184, 5-Fluoro-N2-[3-(N-methylaminosulfony)-4-methylphenyl]-5-fluoro-N4-[3-(3-pyridinyl)methyleneoxyphenyl]-2,4-pyrimidinediamine]	–	6620	486
Cc1ccc(Nc2ncc(F)c(Nc3ccc4c(c3)c(CC#N)cn4C)n2)cc1S(N)(=O)=O [IX-20]	122	2900	–
N2-[3-Aminosulfonyl-4-(4-methylpiperazine-1-yl)phenyl]-N4-(3-cyanomethylene-1H-indol-6-yl)-5-fluoro-2,4-pyrimidinediamine [IX-17]	108	1980	–
Cc1ccc(Nc2ncc(F)c(Nc3ccc(OCc4cccnc4)cc3)n2)cc1S(N)(=O)=O [Compound I-189, N2-(3-Aminosulfonyl-4-methylphenyl)-5-fluoro-N4-[4-(3-pyridinyl)methyleneoxyphenyl]-2,4-pyrimidinediamine]	–	508	137
Cc1cc(Nc2nc(Nc3cccc(S(N)(=O)=O)c3)ncc2F)cc(C)c1OC(C)C(N)=O (racemic) [Compound I-123, Racemic N4-[4-(1-Aminocarbonyl)ethoxy-3,5-dimethyl]phenyl-N2-(3-aminosulfonyl)phenyl-5-fluoro-2,4-pyrimidinediamine]	–	2220	159
Cc1cc(Nc2nc(Nc3ccc(S(N)(=O)=O)cc3)ncc2F)ccc1OCC(N)=O [Compound I-113, N4-(4-Aminocarbonylmethoxy-3-methyl)phenyl-N2-(4-aminosulfonyl)phenyl-5-fluoro-2,4-pyrimidinediamine]	–	13500	165
CCN(CC)CCNS(=O)(=O)c1ccc(Nc2ncc(F)c(Nc3cccc(OCc4cccnc4)c3)n2)cc1 [Compound I-186, N2-[4-(2-N,N-Diethylaminoethyl)aminosulfonylphenyl)-5-fluoro-N4-[3-(3-pyridinyl)methyleneoxyphenyl]-2,4-pyrimidinediamine]	–	3530	188
CN1CCN(c2ccc(Nc3ncc(F)c(Nc4ccc(OCC#N)cc4)n3)cc2S(N)(=O)=O)CC1 [Compound I-9, N2-[3-Aminosulfonyl-4-(4-methylpiperazin-1-yl)phenyl]-5-fluoro-N4-(4-cyanomethyleneoxyphenyl)-2,4-pyrimidinediamine]	–	787	233
C[Si](C)(C)C#Cc1cnc(Nc2cccc(S(N)(=O)=O)c2)nc1Nc1ccc(OCC#N)cc1 [Compound I-15, N2-(3-Aminosulfonylphenyl)-N4-(4-cyanomethyleneoxyphenyl)-5-trimethylsilylacetylene-2,4-pyrimidinediamine]	–	4970	309
N#CCOc1ccc(Nc2nc(Nc3cccc(S(N)(=O)=O)c3)ncc2Br)cc1 [Compound I-13, N2-(3-Aminosulfonylphenyl)-5-bromo-N4-(4-cyanomethyleneoxyphenyl)-2,4-pyrimidinediamine]	–	43.5	6.27
Cc1cc(COc2ccc(Nc3nc(Nc4ccc(C)c(S(N)(=O)=O)c4)ncc3F)cc2)[nH]n1 [Compound I-197, N2-(3-Aminosulfonyl-4-methylphenyl)-5-fluoro-N4-[4-(3-methyl-(1H)-pyrazol-5-yl)methyleneoxyphenyl]-2,4-pyrimidinediamine]	–	1280	135
Cc1ccc(Nc2ncc(F)c(Nc3ccc4[nH]cc(CC#N)c4c3)n2)cc1S(=O)(=O)NC1CCN(C)CC1 [IX-19, N4-(3-cyanomethylene-1H-indol-5yl)-5-fluoro-N2-[3-(1-methyl-4-aminopiperadine)sulfonyl-4-methylphenyl]-2,4-pyrimidinediamine]	118	3370	–
NS(=O)(=O)c1ccc(Nc2ncc(F)c(Nc3ccc(OCc4ccccn4)cc3)n2)cc1 [Compound I-163, N2-(4-Aminosulfonylphenyl)-5-fluoro-N4-[4-(2-pyridinyl)methyleneoxyphenyl]-2,4-pyrimidinediamine]	–	1410	177
CC(C)c1ccc(Nc2ncc(F)c(Nc3ccc(OCC#N)cc3)n2)cc1S(N)(=O)=O [Compound I-8, N2-(3-Aminosulfonyl-4-iso-propylphenyl)-N4-(4-cyanomethyleneoxyphenyl)-5-fluoro-2,4-pyrimidinediamine]	–	410	58.7
N2-(3-Aminosulfonyl-4-methylphenyl)-5-fluoro-N4-[4-(2-pyridinyl)-3-fluoromethyleneoxyphenyl]-2,4-pyrimidinediamine [Compound I-172]	–	1100	47.3
Cc1cc(Nc2nc(Nc3ccc(S(N)(=O)=O)cc3)ncc2F)ccc1OC(C)C(N)=O (racemic) [Compound I-119, Racemic N4-[4-(1-Aminocarbonyl)ethoxy-3-methyl]phenyl-N2-(4-aminosulfonyl)phenyl-5-fluoro-2,4-pyrimidinediamine]	–	11900	211
Cc1ccc(Nc2ncc(F)c(Nc3cc(C)c(OCC(N)=O)c(C)c3)n2)cc1S(N)(=O)=O [Compound I-96, N4-(4-Aminocarbonylmethoxy-3,5-dimethyl)phenyl-N2-(3-aminosulfonyl-4-methyl)phenyl-5-fluoro-2,4-pyrimidinediamine]	–	3300	132
CC(Oc1ccc(Nc2nc(Nc3cccc(S(N)(=O)=O)c3)ncc2F)cc1)C(N)=O (racemic) [Compound I-117, Racemic N4-[4-(1-Aminocarbonyl)ethoxy]phenyl-N2-(3-aminosulfonyl)phenyl-5-fluoro-2,4-pyrimidinediamine]	–	14600	353
Cc1cc(Nc2nc(Nc3ccc(C)c(S(N)(=O)=O)c3)ncc2F)ccc1OC(C)C(N)=O (racemic) [Compound I-121, Racemic N4-[4-(1-Aminocarbonyl)ethoxy-3-methyl]phenyl-N2-(3-aminosulfonyl-4-methyl)phenyl-5-fluoro-2,4-pyrimidinediamine]	–	2990	184

Results, then the compound that gave them:

IC50 [1, 3] [nM]	IC50 [2] [nM]	IC50 [1, 4] [nM]	Compound
227	1290	–	Cc1ccc(Nc2ncc(F)c(Nc3ccc4c(c3)CN(C(=O)N(C)C)CC4)n2)cc1S(N)(=O)=O [VII-18, N2-(3-Aminosulfonyl-4-methylphenyl)-5-fluoro-N4-[2-(dimethylaminocarbonyl)-1,2,3,4-tetrahydroisoquin-7-yl]-2,4-pyrimidinediamine]
185	1930	–	N2-(3-Aminosulphonylphenyl)-5-fluoro-N4-[4-(3-pyridinylmethyl)benzo[1,4]oxazin-7-yl]-2,4-pyrimidinediamine [VII-56]
545	9260	–	Cc1ccc(Nc2ncc(F)c(Nc3ccc4c(c3)CC(C(=O)N(C)C)O4)n2)cc1S(N)(=O)=O (racemic) [VII-26, Racemic N2-(3-Aminosulfonyl-4-methylphenyl)-N4-[2-(N,N-dimethylaminocarbonyl)-2,3-dihydrobenzofuran-5-yl]-5-fluoro-2,4-pyrimidinediamine]
87.5	1260	–	CNC(=O)N1CCCc2cc(Nc3nc(Nc4ccc(C)c(S(N)(=O)=O)c4)ncc3F)ccc21 [VII-19, N2-(3-Aminosulfonyl-4-methylphenyl)-5-fluoro-N4-[1-(methylaminocarbonyl)-1,2,3,4-tetrahydroquin-6-yl]-2,4-pyrimidinediamine]
65	570	–	CS(=O)(=O)N1CCc2cc(Nc3nc(Nc4cccc(S(N)(=O)=O)c4)ncc3F)ccc21 [VII-60, N2-(3-Aminosulfonylphenyl)-5-fluoro-N4-[4-(1-methylsulfonyl)indolin-5-yl]-2,4-pyrimidinediamine]
29.4	1090	–	N#CCN1C(=O)CSc2ccc(Nc3nc(Nc4cccc(S(N)(=O)=O)c4)ncc3F)cc21 [VII-36, N2-(3-Aminosulphonylphenyl)-5-fluoro-N4-(3-oxo-4-cyanomethyl-benzo[1,4]thiazin-6-yl)-2,4-pyrimidinediamine]
184	1670	–	N2-(3-Aminosulphonylphenyl)-5-fluoro-N4-[4-(3-pyridinylmethyl)benzo[1,4]oxazin-7-yl]-2,4-pyrimidinediamine [VII-55]
413	6250	–	CN(C)C(=O)C1Cc2cc(Nc3nc(Nc4ccc(Cl)c(S(N)(=O)=O)c4)ncc3F)ccc2O1 (racemic) [VII-27, Racemic N2-(3-Aminosulfonyl-4-chlorophenyl)-N4-[2-(N,N-dimethylaminocarbonyl)-2,3-dihydrobenzofuran-5-yl]-5-fluoro-2,4-pyrimidinediamine]
66.6	568	–	CCS(=O)(=O)N1CCc2cc(Nc3nc(Nc4ccc(C)c(S(N)(=O)=O)c4)ncc3F)ccc2C1 [VII-15, N2-(3-aminosulfonyl-4-methyl)phenyl-N4-[(N-ethylsulfonyl)-1,2,3,4-tetrahydroisoquinolin-6-yl]-5-fluoro-2,4-pyrimidinediamine]
140	1290	–	CCS(=O)(=O)N1CCc2cc(Nc3nc(Nc4ccc(S(N)(=O)=O)cc4)ncc3F)ccc2C1 [VII-13, N2-(4-aminosulfonyl)phenyl-N4-[(N-ethylsulfonyl)-1,2,3,4-tetrahydroisoquinolin-6-yl]-5-fluoro-2,4-pyrimidinediamine]
